Results published in US10681909B2, “Herbicidal triazoles” (FMC Corporation, priority 2014, dated 2020).

What was measured:
Conditions in all cases: scale 0 to 100
nutsedge, yellow = assay: Test E preemergence; format: in vivo, Cyperus esculentus
Text: (§1) Seeds of plant species selected from corn (Zea mays), soybean (Glycine max), lambsquarters (Chenopodium album), poinsettia, wild (wild poinsettia, Euphorbia heterophylla), pigweed, palmer (palmer pigweed, Amaranthus palmeri), waterhemp (common waterhemp, Amaranthus rudis), surinam grass (Brachiaria decumbens), crabgrass, large (large crabgrass, Digitaria sanguinalis), crabgrass, Brazilian (Brazilian crabgrass, Digitaria horizontalis), panicum, fall (fall panicum, Panicum dichotomiflorum), foxtail, giant (giant foxtail, Setaria faberii), foxtail, green (green foxtail, Setaria viridis), goosegrass (Eleusine indica), johnsongrass (Sorghum halepense), ragweed (common ragweed, Ambrosia elatior), barnyardgrass (Echinochloa crus-galli), sandbur (southern sandbur, Cenchrus echinatus), arrowleaf sida (Sida rhombifolia), ryegrass, Italian (Italian ryegrass, Lolium multiflorum), dayflower, VA (Virginia dayflower, Commelina virginica), field bindweed (Convolvulus arvensis), cocklebur (common cocklebur, Xanthium strumarium), morningglory (Ipomoea coccinea), nightshade (eastern black nightshade, Solanum ptycanthum), kochia (Kochia scoparia), nutsedge, yellow (yellow nutsedge, Cyperus esculentus), smartweed (ladysthumb smartweed, Polygonum persicaria), velvetleaf (Abutilon theophrasti), horseweed (Conyza canadensis), and beggarticks (hairy beggarticks, Bidens pilosa), were planted into a silt loam soil and treated preemergence with test chemicals formulated in a non-phytotoxic solvent mixture which included a surfactant.
(§2) At the same time, plants from these crop and weed species and also waterhemp_RES1, (ALS & Triazine resistant common waterhemp, Amaranthus rudis), and waterhemp_RES2, (ALS & HPPD resistant common waterhemp, Amaranthus rudis) were planted in pots containing Sunshine Redi-Earth® planting medium comprising spaghnum peat moss, vermiculite, starter nutrients and dolomitic limestone were treated with postemergence applications of test chemicals formulated in the same manner. Plants ranged in height from 2 to 18 cm for postemergence treatments (1- to 4-leaf stage). Treated plants and controls were maintained in a greenhouse for 14 to 21 d, after which time all species were compared to controls and visually evaluated. Plant response ratings, summarized in Table E, are based on a scale of 0 to 100 where 0 is no effect and 100 is complete control. A dash (-) response means no test result.

sandbur = assay: Test E preemergence; format: in vivo, Cenchrus echinatus
Text: as §1, §2

ragweed = assay: Test E postemergence; format: in vivo, Ambrosia elatior
Text: as §1, §2

pigweed, palmer = assay: Test E postemergence; format: in vivo, Amaranthus palmeri
Text: as §1, §2

barnyardgrass = assay: Test E postemergence; format: in vivo, Echinochloa crus-galli
Text: as §1, §2

lambsquarters = assay: Test E preemergence; format: in vivo, Chenopodium album
Text: as §1, §2

kochia [1] = assay: Test E preemergence; format: in vivo, Kochia scoparia
Text: as §1, §2

soybean = assay: Test E preemergence; format: in vivo, Glycine max
Text: as §1, §2

kochia [2] = assay: Test E postemergence; format: in vivo, Kochia scoparia
Text: as §1, §2

dayflower, VA = assay: Test E postemergence; format: in vivo, Commelina virginica
Text: as §1, §2

horseweed = assay: Test E postemergence; format: in vivo, Conyza canadensis
Text: as §1, §2

SMILES	Plant response rating (nutsedge, yellow; 31 g ai/ha)	Plant response rating (nutsedge, yellow; 62 g ai/ha)	Plant response rating (nutsedge, yellow; 125 g ai/ha)	Plant response rating (sandbur; 31 g ai/ha)	Plant response rating (sandbur; 62 g ai/ha)	Plant response rating (ragweed; 31 g ai/ha)	Plant response rating (ragweed; 62 g ai/ha)	Plant response rating (ragweed; 125 g ai/ha)	Plant response rating (pigweed, palmer; 31 g ai/ha)	Plant response rating (pigweed, palmer; 62 g ai/ha)	Plant response rating (pigweed, palmer; 125 g ai/ha)	Plant response rating (barnyardgrass; 31 g ai/ha)	Plant response rating (barnyardgrass; 62 g ai/ha)	Plant response rating (barnyardgrass; 125 g ai/ha)	Plant response rating (kochia [2]; 31 g ai/ha)	Plant response rating (kochia [2]; 62 g ai/ha)	Plant response rating (kochia [2]; 125 g ai/ha)	Plant response rating (dayflower, VA; 31 g ai/ha)	Plant response rating (dayflower, VA; 62 g ai/ha)	Plant response rating (dayflower, VA; 125 g ai/ha)	further results
CCOc1nc(-c2ccccc2)nn1Cc1ccnc(C(F)(F)F)c1 [Compound 27]	0	0	15	35	75	50	50	60	98	100	98	20	30	50	100	95	95	60	70	75	Plant response rating (nutsedge, yellow; 16 g ai/ha): 0; Plant response rating (sandbur; 16 g ai/ha): 35; Plant response rating (sandbur; 125 g ai/ha): 98; Plant response rating (ragweed; 16 g ai/ha): 50; Plant response rating (pigweed, palmer; 16 g ai/ha): 98; Plant response rating (barnyardgrass; 16 g ai/ha): 15; Plant response rating (lambsquarters; 16 g ai/ha): 80; Plant response rating (lambsquarters; 31 g ai/ha): 100; Plant response rating (lambsquarters; 62 g ai/ha): 100; Plant response rating (lambsquarters; 125 g ai/ha): 100; Plant response rating (kochia [1]; 16 g ai/ha): 65; Plant response rating (kochia [1]; 31 g ai/ha): 90; Plant response rating (kochia [1]; 62 g ai/ha): 100; Plant response rating (kochia [1]; 125 g ai/ha): 100; Plant response rating (soybean; 16 g ai/ha): 0; Plant response rating (soybean; 31 g ai/ha): 0; Plant response rating (soybean; 62 g ai/ha): 0; Plant response rating (soybean; 125 g ai/ha): 15; Plant response rating (kochia [2]; 16 g ai/ha): 95; Plant response rating (dayflower, VA; 16 g ai/ha): 50
COc1nc(-c2ccc(Cl)cc2)nn1Cc1ccnc(C(F)(F)F)c1 [Compound 28]	–	–	–	–	–	40	40	40	100	90	90	20	25	40	90	95	95	60	70	70	Plant response rating (ragweed; 250 g ai/ha): 50; Plant response rating (pigweed, palmer; 250 g ai/ha): 95; Plant response rating (barnyardgrass; 250 g ai/ha): 40; Plant response rating (horseweed; 31 g ai/ha): 20; Plant response rating (horseweed; 62 g ai/ha): 20; Plant response rating (horseweed; 125 g ai/ha): 35; Plant response rating (horseweed; 250 g ai/ha): 40; Plant response rating (kochia [2]; 250 g ai/ha): 95; Plant response rating (dayflower, VA; 250 g ai/ha): 70
Fc1ccc(-c2nc(OCC(F)(F)F)n(Cc3ccnc(C(F)(F)F)c3)n2)cc1 [Compound 30]	0	0	0	35	65	65	70	75	95	100	100	30	50	90	90	90	100	60	70	80	Plant response rating (nutsedge, yellow; 250 g ai/ha): 0; Plant response rating (sandbur; 125 g ai/ha): 90; Plant response rating (sandbur; 250 g ai/ha): 95; Plant response rating (ragweed; 250 g ai/ha): 80; Plant response rating (pigweed, palmer; 250 g ai/ha): 100; Plant response rating (barnyardgrass; 250 g ai/ha): 100; Plant response rating (lambsquarters; 31 g ai/ha): 90; Plant response rating (lambsquarters; 62 g ai/ha): 98; Plant response rating (lambsquarters; 125 g ai/ha): 100; Plant response rating (lambsquarters; 250 g ai/ha): 100; Plant response rating (kochia [1]; 31 g ai/ha): 90; Plant response rating (kochia [1]; 62 g ai/ha): 100; Plant response rating (kochia [1]; 125 g ai/ha): 100; Plant response rating (kochia [1]; 250 g ai/ha): 100; Plant response rating (soybean; 31 g ai/ha): 0; Plant response rating (soybean; 62 g ai/ha): 0; Plant response rating (soybean; 125 g ai/ha): 0; Plant response rating (soybean; 250 g ai/ha): 30; Plant response rating (kochia [2]; 250 g ai/ha): 90; Plant response rating (dayflower, VA; 250 g ai/ha): 90
